# Reference: patent US12185723B2, “Herbicidally active 3-phenylisoxazoline-5-carboxamides of s-containing cyclopentenylcarboxylic esters” (Bayer Aktiengesellschaft, priority 2019, dated 2025)
# Tests used:
# Format in all cases: in vivo
# [1] = test system: Viola tricolor; assay: Post-emergence herbicidal action against VIOTR
# Method in brief: (§1)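 Visual % activity versus untreated controls, scored about 3 weeks after spraying (0% = like control, 100% = dead). Plants grown in sandy loam in a greenhouse were treated at the one-leaf stage, 2 to 3 weeks post-sowing, with WP or EC formulations plus 0.5% additive at 600 l/ha.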
# [2] = test system: Stellaria media; assay: Post-emergence herbicidal action against STEME
# Method in brief: as §1
# [3] = test system: Polygonum convolvulus; assay: Post-emergence herbicidal action against POLCO
# Method in brief: as §1
# [4] = test system: Hordeum murinum; assay: Post-emergence herbicidal action against HORMU
# Method in brief: as §1
# [5] = test system: Abutilon theophrasti; assay: Post-emergence herbicidal action against ABUTH; conditions: visual rating about 3 weeks after treatment
# Method in brief: as §1
# [6] = test system: Matricaria inodora; assay: Post-emergence herbicidal action against MATIN
# Method in brief: as §1
# [7] = test system: Alopecurus myosuroides; assay: Post-emergence herbicidal action against ALOMY; conditions: visual rating about 3 weeks after treatment
# Method in brief: as §1
# [8] = test system: DIGSA; assay: Post-emergence herbicidal action against DIGSA; conditions: visual rating about 3 weeks after treatment
# Method in brief: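 Greenhouse-grown plants sprayed at one-leaf stage (2–3 weeks after sowing) with WP or EC formulations as aqueous suspension/emulsion plus 0.5% additive, 600 l/ha water. Activity rated visually about 3 weeks later versus untreated controls, 100% = plants dead, 0% = like controls.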
# [9] = test system: Amaranthus retroflexus; assay: Post-emergence herbicidal action against AMARE
# Method in brief: as §1
# [10] = test system: Avena fatua; assay: Post-emergence herbicidal action against AVEFA; conditions: visual rating about 3 weeks after treatment
# Method in brief: as §1
# [11] = test system: Setaria viridis; assay: Post-emergence herbicidal action against SETVI; conditions: visual rating about 3 weeks after treatment
# Method in brief: as §1
# [12] = test system: Echinochloa crus-galli; assay: Post-emergence herbicidal action against ECHCG; conditions: visual rating about 3 weeks after treatment
# Method in brief: as §1
# [13] = test system: Lolium rigidum; assay: Post-emergence herbicidal action against LOLRI; conditions: visual rating about 3 weeks after treatment
# Method in brief: as §1
# [14] = test system: Pharbitis purpurea; assay: Post-emergence herbicidal action against PHBPU
# Method in brief: as §1
# [15] = test system: Veronica persica; assay: Post-emergence herbicidal action against VERPE
# Method in brief: as §1
# [16] = 80 g a.i./ha, visual rating about 3 weeks after treatment
smiles,measurement,setting,value
C=CC1(C(=O)NC2C=CC(C(=O)OCCSC)C2)CC(c2cc(F)cc(F)c2)=NO1 (stereo not shown) [Example I-18],Herbicidal action against [%] VIOTR,[1]; 20 g a.i./ha,90%
same,Herbicidal action against [%] VIOTR,[1]; 80 g a.i./ha,80%
same,Herbicidal action against [%] STEME,[2]; 20 g a.i./ha,90%
same,Herbicidal action against [%] STEME,[2]; 80 g a.i./ha,90%
same,Herbicidal action against [%] POLCO,[3]; 20 g a.i./ha,90%
same,Herbicidal action against [%] POLCO,[3]; 80 g a.i./ha,90%
same,Herbicidal action against [%] HORMU,[4]; 20 g a.i./ha,100%
same,Herbicidal action against [%] HORMU,[4]; 80 g a.i./ha,100%
same,Herbicidal action against [%] ABUTH,[5]; 20 g a.i./ha,90%
same,Herbicidal action against [%] ABUTH,[5]; 80 g a.i./ha,90%
same,Herbicidal action against [%] MATIN,[6]; 20 g a.i./ha,90%
same,Herbicidal action against [%] MATIN,[6]; [16],90%
same,Herbicidal action against [%] ALOMY,[7]; 20 g a.i./ha,100%
same,Herbicidal action against [%] ALOMY,[7]; 80 g a.i./ha,100%
same,Herbicidal action against [%] DIGSA,[8]; 20 g a.i./ha,90%
same,Herbicidal action against [%] DIGSA,[8]; 80 g a.i./ha,90%
same,Herbicidal action against [%] AMARE,[9]; 20 g a.i./ha,90%
same,Herbicidal action against [%] AMARE,[9]; [16],90%
same,Herbicidal action against [%] AVEFA,[10]; 20 g a.i./ha,90%
same,Herbicidal action against [%] AVEFA,[10]; 80 g a.i./ha,100%
same,Herbicidal action against [%] SETVI,[11]; 20 g a.i./ha,80%
same,Herbicidal action against [%] SETVI,[11]; 80 g a.i./ha,80%
same,Herbicidal action against [%] ECHCG,[12]; 20 g a.i./ha,90%
same,Herbicidal action against [%] ECHCG,[12]; 80 g a.i./ha,90%
same,Herbicidal action against [%] LOLRI,[13]; 20 g a.i./ha,90%
same,Herbicidal action against [%] LOLRI,[13]; 80 g a.i./ha,90%
same,Herbicidal action against [%] PHBPU,[14]; 20 g a.i./ha,80%
same,Herbicidal action against [%] PHBPU,[14]; 80 g a.i./ha,80%
same,Herbicidal action against [%] VERPE,[15]; 20 g a.i./ha,90%
same,Herbicidal action against [%] VERPE,[15]; 80 g a.i./ha,90%
CSCCOC(=O)C1C=CC(NC(=O)C2(CCl)CC(c3cc(F)cc(F)c3)=NO2)C1 (stereo not shown) [Example I-31],Herbicidal action against [%] VIOTR,[1]; 20 g a.i./ha,80%
same,Herbicidal action against [%] VIOTR,[1]; 80 g a.i./ha,80%
same,Herbicidal action against [%] STEME,[2]; 20 g a.i./ha,80%
same,Herbicidal action against [%] STEME,[2]; 80 g a.i./ha,80%
same,Herbicidal action against [%] POLCO,[3]; 20 g a.i./ha,90%
same,Herbicidal action against [%] POLCO,[3]; 80 g a.i./ha,90%
same,Herbicidal action against [%] HORMU,[4]; 20 g a.i./ha,90%
same,Herbicidal action against [%] HORMU,[4]; 80 g a.i./ha,90%
same,Herbicidal action against [%] ABUTH,[5]; 80 g a.i./ha,80%
same,Herbicidal action against [%] MATIN,[6]; 20 g a.i./ha,80%
same,Herbicidal action against [%] MATIN,[6]; [16],80%
same,Herbicidal action against [%] ALOMY,[7]; 20 g a.i./ha,90%
same,Herbicidal action against [%] ALOMY,[7]; 80 g a.i./ha,90%
same,Herbicidal action against [%] DIGSA,[8]; 20 g a.i./ha,90%
same,Herbicidal action against [%] DIGSA,[8]; 80 g a.i./ha,90%
same,Herbicidal action against [%] AMARE,[9]; 20 g a.i./ha,80%
same,Herbicidal action against [%] AMARE,[9]; [16],80%
same,Herbicidal action against [%] AVEFA,[10]; 20 g a.i./ha,90%
same,Herbicidal action against [%] AVEFA,[10]; 80 g a.i./ha,90%
same,Herbicidal action against [%] SETVI,[11]; 20 g a.i./ha,80%
same,Herbicidal action against [%] SETVI,[11]; 80 g a.i./ha,90%
same,Herbicidal action against [%] ECHCG,[12]; 20 g a.i./ha,90%
same,Herbicidal action against [%] ECHCG,[12]; 80 g a.i./ha,90%
same,Herbicidal action against [%] LOLRI,[13]; 20 g a.i./ha,90%
same,Herbicidal action against [%] LOLRI,[13]; 80 g a.i./ha,90%
same,Herbicidal action against [%] PHBPU,[14]; 80 g a.i./ha,90%
same,Herbicidal action against [%] VERPE,[15]; 20 g a.i./ha,80%
same,Herbicidal action against [%] VERPE,[15]; 80 g a.i./ha,80%
